Source: patent US20060104944A1, “Activators and inhibitors of protease activated receptor2 (PAR2) and methods of use” (priority 2004, published 2006)
No end group written: not given here. *: point of attachment. tc = trans-cinnamoyl N-cap, O=C(/C=C/c1ccccc1)*; code O = not defined here

Experiments:
[1] = system: chick chorioallantoic membrane (CAM); test: Neovascularization in the chick chorioallantoic membrane (CAM) model; assay type: in vivo; conditions: for Branch Points ± SEM: Table 3, agent alone: FGF2 1 ug/ml, VEGF 2 ug/ml, PAR-1 3 ug, PAR-2 0.3 ug, n = 8; for Mean Number of Branch Points ± SD: Table 4, agent alone: FGF2 1.0 μg, PAR2 agonist 5.0 μg, TF/factor VIIa, N = 16; for PAR2-induced angiogenesis in the CAM model: in words, FIG. 3, Table 5
Experimental: In vivo neovascularization was examined by the method previously described by Auerbach et al. (Auerbach et al., J. Dev. Biol., 41:391-394 (1974), which is hereby incorporated by reference in its entirety). Ten-day old embryos were purchased from Spafas, Inc. (Preston, Conn.) and were incubated at 37° C. with 55% relative humidity. In the dark with the help of a candling lamp, a small hole was punctured in the shell concealing the air sac with a hypodermic needle. A second hole was punctured in the shell on the broadside of the egg directly over an avascular portion of the embryonic membrane, as observed during candling. A false air sac was created beneath the second hole by the application of negative pressure to the first hole, which caused the chorioallantoic membrane (CAM) to separate from the shell. A window, approximately 1.0 cm^2, was cut in the shell over the dropped CAM with the use of a small crafts grinding wheel (Dremel, Division of Emerson Electric Company Racine, Wisconsin) which allowed direct access to the underlying CAM. Filter disks of #1 filter paper (Whatman International, United Kingdom) were soaked in 3 mg/ml cortisone acetate (Sigma, St. Louis, Mo.) in a solution of 95% ethanol and water and subsequently air dried under sterile conditions. FGF2 (Life Technologies, Gaithersburg, Md.) was used to grow vessels on the CAMs of 10 day old chick embryos. Sterile filter disks adsorbed with FGF2 dissolved in PBS at 1 μg/ml were placed on growing CAMs. […] At 24 h, test compounds or control vehicle was added directly to CAM topically.
(§1) CAM tissue directly beneath FGF2-saturated filter disk was resected from embryos treated 48 hours prior with test compound or control. Tissues were washed three times with PBS. Sections were placed in a 35-mm petri dish (Nalge Nunc, Rochester, N.Y.) and examined under a SV6 stereomicroscope (Karl Zeiss, Thornwood, N.Y.) at 50× magnification. Digital images of CAM sections adjacent to filters were collected using a 3-CCD color video camera system (Toshiba America, New York, N.Y.) and analyzed using Image-Pro Plus software (Media Cybernetics, Silver Spring, Md.).
as §1, with “48 h” for “48 hours”, “with” for “with test”, “analyzed with the” for “analyzed using”

[2] = system: Human dermal micro-vascular endothelial cells (HDMEC); test: In vitro 3D sprout angiogenesis (vessel tube length) assay; assay type: cell-based; conditions: agent alone, 1 ug
Experimental: Culture of HDMEC on micro-carrier beads: 80% confluent HDMEC (Passage 5-10) were mixed with gelatin-coated Cytodex-3 beads with a ratio of 40 cells per bead. Suspend cells and beads (150-200 beads per well for 24-well plate) with 5 ml EBM+15% normal human serum, mix gently every one hour for first four hours, then leave the mixture culture in CO2 incubator overnight. The next morning, add 10 ml of fresh EBM+15% HS and culture for another three hours. Before experiments, check the culture of EC-beads. Add 500 μl of PBS in a well of 24-well plate, take 100 ul of the EC-bead culture solution, and add it to the PBS, observe and count the number of beads, calculate the concentration of EC-beads. The EC-beads are good for experiments for 48 hours.
Prepare fibrinogen solution (1 mg/ml) in EBM medium with or without angiogenesis factors or testing factors. For positive control, use 30 ng/ml VEGF+25 ng/ml FGF2. Wash EC-beads with EBM medium for two times and add EC-beads to fibrinogen solution. For each condition, do experiment in triplicates. Mix the EC-beads in fibrinogen solution gently and add 2.5 μl human thrombin (0.05 U/μl) in 1 ml fibrinogen solution, immediately transfer 300 ul to each well of 24-well plate. The fibrinogen solution will polymerize in 5-10 minutes, after 20 minutes, add EBM+20% normal human serum+10 μg/ml Aprotinin. Incubate the plate in CO2 incubator. […]

[3] = system: isolated blood vessel preparations; conditions: in words, cited from earlier work
[4] = system: chick chorioallantoic membrane (CAM); test: Neovascularization in the chick chorioallantoic membrane (CAM) model; assay type: in vivo; conditions: Table 5; for Mean % Inhibition ± SEM: inhibition of PAR-2 (SEQ ID NO: 3, 0.3 ug/ml) stimulated angiogenesis, inhibitor doses as E12
[5] = target: T1, PAR-1 (Homo sapiens, UniProt P25116); conditions: PAR-1 antagonist, variety of bioassays; cited from earlier work
T1 sequence (P25116 22-425): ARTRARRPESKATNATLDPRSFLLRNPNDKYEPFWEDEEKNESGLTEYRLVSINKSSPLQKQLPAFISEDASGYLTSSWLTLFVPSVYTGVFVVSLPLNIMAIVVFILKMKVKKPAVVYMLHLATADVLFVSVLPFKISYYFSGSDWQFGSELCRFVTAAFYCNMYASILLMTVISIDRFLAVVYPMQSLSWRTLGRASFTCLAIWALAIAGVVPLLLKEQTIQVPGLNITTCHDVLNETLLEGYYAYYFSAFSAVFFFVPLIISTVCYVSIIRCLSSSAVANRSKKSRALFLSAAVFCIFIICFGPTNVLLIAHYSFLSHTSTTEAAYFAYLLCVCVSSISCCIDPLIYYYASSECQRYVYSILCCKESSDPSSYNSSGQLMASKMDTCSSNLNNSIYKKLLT

[6] = target: T2, PAR-2 (Homo sapiens, UniProt P55085); conditions: in words; cited from earlier work
T2 sequence (P55085 26-397): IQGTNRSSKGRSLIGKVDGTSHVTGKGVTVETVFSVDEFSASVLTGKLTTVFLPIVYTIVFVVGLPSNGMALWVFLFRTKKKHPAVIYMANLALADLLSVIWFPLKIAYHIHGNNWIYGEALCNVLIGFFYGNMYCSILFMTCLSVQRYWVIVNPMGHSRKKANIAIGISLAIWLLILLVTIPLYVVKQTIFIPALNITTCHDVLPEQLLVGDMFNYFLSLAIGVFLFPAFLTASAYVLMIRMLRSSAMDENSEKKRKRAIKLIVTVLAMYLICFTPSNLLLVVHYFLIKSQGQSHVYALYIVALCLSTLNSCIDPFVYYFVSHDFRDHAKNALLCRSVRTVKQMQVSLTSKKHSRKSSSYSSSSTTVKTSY

[7] = target: T1, PAR-1; conditions: at PAR-1; in words; cited from earlier work
[8] = system: rat aorta; conditions: in words; cited from earlier work
[9] = system: Human umbilical vein endothelial cells (HUVEC); test: Endothelial cell tube formation on Matrigel; assay type: cell-based; conditions: agent alone; FGF2 0.1 μg, PAR2 agonist 0.25 μg; n = 3
Experimental: Differentiation by endothelial cells was examined using a method developed by Grant et al. (Grant et al., In Vitro Cell Dev. Biol., 27A:327-336 (1991), which is hereby incorporated by reference in its entirety). Matrigel® matrix, phenol-red free (commercially available from Becton Dickinson, Bedford, Mass.) was thawed overnight at 4° C. Using cold pipette tips, 3.0 mg/well of Matrigel® matrix was placed in a cold twenty-four-multiwell plate (Falcon). Matrigel® matrix was allowed to polymerize during incubation at 37° C. for 30 minutes.
Human umbilical vein endothelial cells (HUVEC) were maintained at 37° C. with 5% CO2 and 95% humidity in endothelial cell growth medium with 2% fetal bovine serum (EGM). The tube assay was performed in endothelial cell basal medium (EBM) supplemented with 0.5% bovine serum albumin (BSA) and 1:100 diluted Insulin-Transferrin-Selenium-G supplement (I-T-Se, 100×). HUVEC were trypsinized, centrifuged, and, subsequently, washed twice in phosphate buffered saline (PBS). […] Digital images of micro-titer well sections were collected using a DKC5000 3-CCD color video camera system (Toshiba America, New York, N.Y.) and analyzed using Image-Pro Plus software (Media Cybernetics, Silver Spring, Md.). The area and major axis length of stained cells having a tubular morphology was measured on the Matrigel® matrix surface (Becton Dickinson, Bedford, Pa.).

[10] = target: T2, PAR-2; conditions: at PAR-2; in words; cited from earlier work
[11] = PAR-2 (SEQ ID NO: 3, 0.3 ug/ml) + inhibitor: XT199 10 ug, anti-VII/VIIa 3 ug, PD98059 5 ug, Hirudin 1 U, PAR-2 mAb 3 ug, anti-TF mAb 2 ug

VEGF
Branch Points ± SEM [1]: 168 ± 10

TFLLRN [SEQ ID NO: 6, PAR1 agonist peptide used for comparison]
Vessel Length(mm) ± SEM [2]: 0.88 ± 0.08 mm
Branch Points ± SEM [1]: 101 ± 7

tc-LIGRLO (tc-LIGRL-{code O}; reading uncertain; also: printed as tc-LIGRLO)
activity in the relaxation assay ([3]; compared with SLIGRL): equally active
contraction [3]: does not cause contraction

HOOC-L-I-G-R-L-O-NH2 (LIGRL-{code O-NH2}; reading uncertain; also: 'HOOC-' written at N-terminus) [SEQ ID NO: 3]
Mean Branch points ± SEM ([4]; PAR-2 agonist alone, 0.3 ug/ml, n = 8): 176 ± 14
Mean Branch points ± SEM ([4]; PAR-2 agonist alone, 0.3 ug/ml, n = 8, listed as PAR-2): 186 ± 17

HOOC-S-L-I-G-K-V-NH2 (SLIGKV-NH2; also: 'HOOC-' written at N-terminus) [SEQ ID NO: 5]
Vessel Length(mm) ± SEM [2]: 1.39 ± 0.28 mm
Branch Points ± SEM [1]: 197 ± 15
Mean Number of Branch Points ± SD [1]: 205 ± 8

NCC[C@H](NC(=O)[C@H](Cc1ccc(F)c(F)c1)NC(=O)Nc1ccc2c(CN3CCCC3)cn(Cc3c(Cl)cccc3Cl)c2c1)C(=O)NCc1ccccc1 [RWJ-56110]
IC50 [5]: 100 to 500 nM
activity as a PAR-2 antagonist [6]: inactive

FSLLRY [FSLLRY-NH2, PAR2 antagonist]
agonistic activity [7]: lack agonistic activity
trypsin relaxant activity [8]: antagonize

Hirudin
Mean Branch points ± SEM [4, 11]: 174 ± 9
Mean % Inhibition ± SEM [4]: 3 ± 8%
PAR2-induced angiogenesis in the CAM model [1]: not

HOOC-S-L-I-G-R-L-NH2 (SLIGRL-NH2; also: 'HOOC-' written at N-terminus) [SEQ ID NO: 4]
Mean Endothelial tube length (mm) ± SD [9]: 58 ± 4 mm

COc1cccc(-c2cc(=O)c3ccccc3o2)c1N [PD98059]
Mean Branch points ± SEM [4, 11]: 102 ± 9
Mean % Inhibition ± SEM [4]: 88 ± 12%
PAR2-induced angiogenesis in the CAM model [1]: blocked

FGF2: human fibroblast growth factor basic
increase in angiogenesis index ([1]; 1 μg of FGF2): 2-3 fold
Branch Points ± SEM [1]: 182 ± 11
Mean Number of Branch Points ± SD [1]: 198 ± 14
Mean Endothelial tube length (mm) ± SD [9]: 64 ± 5 mm

LSIGRL [LSIGRL-NH2, PAR2 antagonist]
agonistic activity [10]: lack agonistic activity
